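Five concentrations, 48 hours, 96-well plates. GI50 = concentration required for 50% inhibition of growth. At the TGI there is no net growth.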
What was measured:
Assay in all cases: NCI tumour cell line growth inhibition, 48 h
786-0 renal = test system: 786-0 renal
A498 renal = test system: A498 renal
A549 NSCLC = test system: A549 NSCLC
ACHN renal = test system: ACHN renal
BT-549 breast = test system: BT-549 breast
CAKI-1 renal = test system: CAKI-1 renal
CCRF-CEM leukemia = test system: CCRF-CEM leukemia
COLO 205 colon = test system: COLO 205 colon
DU-145 prostate = test system: DU-145 prostate
EKVX NSCLC = test system: EKVX NSCLC
HCC-2998 colon = test system: HCC-2998 colon
HCT-116 colon = test system: HCT-116 colon
HCT-15 colon = test system: HCT-15 colon
HL-60(TB) leukemia = test system: HL-60(TB) leukemia
HOP-62 NSCLC = test system: HOP-62 NSCLC
HOP-92 NSCLC = test system: HOP-92 NSCLC
HS 578T breast = test system: HS 578T breast
HT29 colon = test system: HT29 colon
IGROV1 ovarian = test system: IGROV1 ovarian
K-562 leukemia = test system: K-562 leukemia
KM12 colon = test system: KM12 colon
LOX IMVI melanoma = test system: LOX IMVI melanoma
M14 melanoma = test system: M14 melanoma
MALME-3M melanoma = test system: MALME-3M melanoma
MCF7 breast = test system: MCF7 breast
MDA-MB-231 breast = test system: MDA-MB-231 breast
MDA-MB-435 = test system: MDA-MB-435
MDA-MB-468 breast = test system: MDA-MB-468 breast
MOLT-4 leukemia = test system: MOLT-4 leukemia
NCI-H226 lung = test system: NCI-H226 lung
NCI-H23 lung = test system: NCI-H23 lung
NCI-H460 lung = test system: NCI-H460 lung
NCI-H522 lung = test system: NCI-H522 lung
NCI/ADR-RES ovarian = test system: NCI/ADR-RES ovarian
OVCAR-3 ovarian = test system: OVCAR-3 ovarian
OVCAR-4 ovarian = test system: OVCAR-4 ovarian
OVCAR-5 ovarian = test system: OVCAR-5 ovarian
OVCAR-8 ovarian = test system: OVCAR-8 ovarian
PC-3 prostate = test system: PC-3 prostate
RPMI-8226 leukemia = test system: RPMI-8226 leukemia
RXF 393 renal = test system: RXF 393 renal
SF-268 CNS = test system: SF-268 CNS
SF-295 CNS = test system: SF-295 CNS
SF-539 CNS = test system: SF-539 CNS
SK-MEL-2 melanoma = test system: SK-MEL-2 melanoma
SK-MEL-28 melanoma = test system: SK-MEL-28 melanoma
SK-MEL-5 melanoma = test system: SK-MEL-5 melanoma
SK-OV-3 ovarian = test system: SK-OV-3 ovarian
SN12C renal = test system: SN12C renal
SNB-19 CNS = test system: SNB-19 CNS
SNB-75 CNS = test system: SNB-75 CNS
SR leukemia = test system: SR leukemia
SW-620 colon = test system: SW-620 colon
T-47D breast = test system: T-47D breast
TK-10 renal = test system: TK-10 renal
U251 CNS = test system: U251 CNS
UACC-257 melanoma = test system: UACC-257 melanoma
UACC-62 melanoma = test system: UACC-62 melanoma
UO-31 renal = test system: UO-31 renal

COc1ccc2ncc(C#Cc3cncc(C(=O)Nc4ccc(CN5CCN(C)CC5)c(C(F)(F)F)c4)c3)n2n1
GI50 (786-0 renal): 3.53 µM
TGI (786-0 renal): 15.6 µM
GI50 (A498 renal): 14.2 µM
TGI (A498 renal): > 37.7 µM
GI50 (A549 NSCLC): 1.27 µM
TGI (A549 NSCLC): 17.7 µM
GI50 (ACHN renal): 1.39 µM
TGI (ACHN renal): > 28.4 µM
GI50 (BT-549 breast): 1.47 µM
TGI (BT-549 breast): 9.85 µM
GI50 (CAKI-1 renal): 1.08 µM
TGI (CAKI-1 renal): 10.5 µM
GI50 (CCRF-CEM leukemia): 0.203 µM
TGI (CCRF-CEM leukemia): > 72 µM
GI50 (COLO 205 colon): 0.265 µM
TGI (COLO 205 colon): 2.34 µM
GI50 (DU-145 prostate): 2.19 µM
TGI (DU-145 prostate): 13.4 µM
GI50 (EKVX NSCLC): 1.22 µM
TGI (EKVX NSCLC): 13.3 µM
GI50 (HCC-2998 colon): 4.16 µM
TGI (HCC-2998 colon): 14.4 µM
GI50 (HCT-116 colon): 0.244 µM
TGI (HCT-116 colon): 5.55 µM
GI50 (HCT-15 colon): 0.496 µM
TGI (HCT-15 colon): 9.8 µM
GI50 (HL-60(TB) leukemia): 0.31 µM
TGI (HL-60(TB) leukemia): 4.25 µM
GI50 (HOP-62 NSCLC): 1.16 µM
TGI (HOP-62 NSCLC): 16.6 µM
GI50 (HOP-92 NSCLC): 0.238 µM
TGI (HOP-92 NSCLC): 2.9 µM
GI50 (HS 578T breast): 0.398 µM
TGI (HS 578T breast): 6.06 µM
GI50 (HT29 colon): 0.444 µM
TGI (HT29 colon): 9.45 µM
GI50 (IGROV1 ovarian): 3.81 µM
TGI (IGROV1 ovarian): > 30.2 µM
GI50 (K-562 leukemia): 0.0072 µM
TGI (K-562 leukemia): 1.11 µM
GI50 (KM12 colon): 0.0072 µM
TGI (KM12 colon): 9.17 µM
GI50 (LOX IMVI melanoma): 0.877 µM
TGI (LOX IMVI melanoma): 4.26 µM
GI50 (M14 melanoma): 0.569 µM
TGI (M14 melanoma): 3.12 µM
GI50 (MALME-3M melanoma): 0.384 µM
TGI (MALME-3M melanoma): 3.32 µM
GI50 (MCF7 breast): 0.295 µM
TGI (MCF7 breast): 3.68 µM
GI50 (MDA-MB-231 breast): 0.61 µM
TGI (MDA-MB-231 breast): 6.53 µM
GI50 (MDA-MB-435): 0.54 µM
TGI (MDA-MB-435): 13.3 µM
GI50 (MDA-MB-468 breast): 1.66 µM
TGI (MDA-MB-468 breast): 13 µM
GI50 (MOLT-4 leukemia): 0.356 µM
TGI (MOLT-4 leukemia): 4.07 µM
GI50 (NCI-H226 lung): 0.147 µM
TGI (NCI-H226 lung): 2.3 µM
GI50 (NCI-H23 lung): 0.629 µM
TGI (NCI-H23 lung): 10.3 µM
GI50 (NCI-H460 lung): 0.496 µM
TGI (NCI-H460 lung): 13.1 µM
GI50 (NCI-H522 lung): 1.84 µM
TGI (NCI-H522 lung): 14.1 µM
GI50 (NCI/ADR-RES ovarian): 2.23 µM
TGI (NCI/ADR-RES ovarian): 9.34 µM
GI50 (OVCAR-3 ovarian): 6.35 µM
TGI (OVCAR-3 ovarian): > 39.7 µM
GI50 (OVCAR-4 ovarian): 3.89 µM
TGI (OVCAR-4 ovarian): 18.3 µM
GI50 (OVCAR-5 ovarian): 0.838 µM
TGI (OVCAR-5 ovarian): 9.91 µM
GI50 (OVCAR-8 ovarian): 4.26 µM
TGI (OVCAR-8 ovarian): 18.2 µM
GI50 (PC-3 prostate): 3.76 µM
TGI (PC-3 prostate): 19.9 µM
GI50 (RPMI-8226 leukemia): 1.39 µM
TGI (RPMI-8226 leukemia): > 72 µM
GI50 (RXF 393 renal): 1.31 µM
TGI (RXF 393 renal): 8.63 µM
GI50 (SF-268 CNS): 2.83 µM
TGI (SF-268 CNS): 18.5 µM
GI50 (SF-295 CNS): 0.986 µM
TGI (SF-295 CNS): 15.5 µM
GI50 (SF-539 CNS): 0.196 µM
TGI (SF-539 CNS): 1.13 µM
GI50 (SK-MEL-2 melanoma): 1.29 µM
TGI (SK-MEL-2 melanoma): 6.54 µM
GI50 (SK-MEL-28 melanoma): 2.59 µM
TGI (SK-MEL-28 melanoma): 5.8 µM
GI50 (SK-MEL-5 melanoma): 4.78 µM
TGI (SK-MEL-5 melanoma): 14.9 µM
GI50 (SK-OV-3 ovarian): 5.68 µM
TGI (SK-OV-3 ovarian): 20 µM
GI50 (SN12C renal): 1.37 µM
TGI (SN12C renal): 8.03 µM
GI50 (SNB-19 CNS): 9.94 µM
TGI (SNB-19 CNS): 21.5 µM
GI50 (SNB-75 CNS): 5.91 µM
TGI (SNB-75 CNS): 15.9 µM
GI50 (SR leukemia): 0.549 µM
TGI (SR leukemia): > 30.5 µM
GI50 (SW-620 colon): 0.27 µM
TGI (SW-620 colon): 7.6 µM
GI50 (T-47D breast): > 72 µM
TGI (T-47D breast): > 72 µM
GI50 (TK-10 renal): 6.03 µM
TGI (TK-10 renal): 15.6 µM
GI50 (U251 CNS): 9.62 µM
TGI (U251 CNS): 23.2 µM
GI50 (UACC-257 melanoma): 3.8 µM
TGI (UACC-257 melanoma): 16.7 µM
GI50 (UACC-62 melanoma): 8.37 µM
TGI (UACC-62 melanoma): 18.2 µM
GI50 (UO-31 renal): 3.23 µM
TGI (UO-31 renal): 12.8 µM

From PubChem BioAssay (NCI)
